Key:
Assay type in all cases: cell-based, mouse
[1] = tested on: Mut MEFs; assay: Oxygen consumption (Seahorse XF Cell Mito Stress Test), MEFs; conditions: for basal and ATP-linked respiration rate per mitochondrial DNA content: 6 hours (FIGS. 8A-B)
Description: Mut MEFs were treated or not for 6 hours with the indicated concentrations of the indicated Sig-1R binders. Oxygen consumption was measured in a XF96 Extracellular Flux Analyzer using the Seahorse XF Cell Mito Stress Test Kit. The Basal respiration (FIG. 7A) and ATP-linked respiration (FIG. 7B) data were normalized to biomass as determined by Crystal Violet staining.
Mut MEFs were treated or not for 6 hours with the indicated concentrations of the indicated Sig-1R binders. Oxygen consumption was measured in a XF96 Extracellular Flux Analyzer using the Seahorse XF Cell Mito Stress Test Kit. The Basal respiration (FIG. 8A), ATP-linked respiration (FIG. 8B) and maximal respiration (FIG. 8C) data was normalized to mtDNA content as detailed in FIG. 2.
(§1) The data were normalized to cell number, obtained by Crystal Violet staining, or to mtDNA content.

[2] = tested on: Mut MEFs; assay: JC1 staining of intact and damaged mitochondria (mitochondrial membrane potential); conditions: Mut MEFs
Description: Mut MEFs were treated or not for 6 hours with the indicated concentrations of p8G5 (blue), pre084 (purple), or NE-100 (yellow), washed and stained with Hoechst and JC1 for 30 minutes followed by image acquisition using In-Cell-Analyzer-2000. Shown is the % of red/green JC1 integrated intensity per cell relative to that in untreated WT cells of 2-4 independent experiments.
Following, the cells were washed, stained with Hoechst and JC-1 fluorescent dyes for 30 minutes, and subjected to image acquisition using In-Cell-Analyzer-2000. Shown is cellular content of damaged mitochondria (JC1 green channel, red bars), intact mitochondria (JC1 red channel, green bars) and damaged to intact mitochondria ratio (blue bars). Values of control (vehicle treated) cells was set to 100%.
Mut MEFs were treated with the indicated compounds at 10 μM for 24 hours followed by staining with fluorogenic dyes and image-based single-cell analysis. Shown is average effect on ROS level from at least 3-independent experiments ±SEM. […] Mut MEFs were incubated or not for 24 hours with 10 μM of the indicated compound, washed and stained with Crystal Violet. […] Mut MEFs were incubated or not for 24 hours with 10 μM of the indicated compound, washed and stained with JC1 and Hoechst followed by image-based single-cell analysis. Values of untreated cells were set as 100%. Shown is average of at least 3 independent experiments for each parameter compared to its matching control ±SEM. * p<0.05. Putative targets are indicated.
Mut MEFs were incubated or not for 24 hours with 10 μM of the indicated compounds, washed and stained with Hoechst and JC1 followed by image-based single-cell analysis. […] Mut MEFs were incubated or not with the indicated concentrations of the indicated compounds for 2 hours followed by addition of 50 ng/ml Tunicamycin (Tun) for additional 22 hours, stained with Crystal Violet followed by measurement of absorbance at 570 nm.
MEFs were seeded on 1% gelatin-coated 96-wells plate at a density of 5000 cells per well. 24 hours post-plating the cells were incubated with the tested compounds for additional 24 hours. Several DMSO-treated cells (control) were included in each plate at different locations. Following, the cells were stained by addition of fluorogenic dyes for further 30 minutes incubation at 37° C. […] CellROX was used together with Hoechst and CFSE; JC1 was used together with Hoechst. Cells were washed with Hank's balanced salt solution (HBSS) which was used for images acquisition using IN Cell Analyzer 2000 (GE Healthcare, Pitsburgh, Pa., USA). IN Cell Developer Toolbox 1.9.1 software (GE Healthcare) was used for analysis which included cells segmentation using Hoechst and/or CFSE signals. For analysis of JC1 staining, integrated intensity of green and red emissions were used for detection of damaged and intact mitochondria, respectively.

[3] = tested on: Mut MEFs; assay: mtDNA quantification (qPCR of mitochondrial 12S rRNA and nuclear 18S rRNA genes), MEFs; conditions: 0.1 μM-1 μM, 6 hours incubation (FIG. 2)
Description: DNA extracted from WT and Mut MEFs that were treated or not for 6 hours with 0.1 μM, 1 μM or 10 μM of p8G5 (blue), Pre084 (known SIG-1R agonist, purple), pridopidine (known SIG-1R agonists, green) or NE-100 (known SIG-1R antagonist, yellow) was subjected to qPCR analysis of mitochondrial 12S rRNA and nuclear 18S rRNA genes.

[4] = tested on: Mut primary astrocytes; assay: Oxygen consumption (OCR), primary astrocytes; conditions: 1 or 10 μm, 6 hours, normalized to cell number (FIGS. 17B-C)
Description: Shown is average relative quantity (RQ) of 2-6 independent experiments normalized to their untreated controls ±SEM. […] Values of ATP-linked respiration (FIG. 17B) and maximal respiration (FIG. 17C) were analyzed and normalized to cell number.
as §1

In the case of `Cc1cccc(OCCCCCN2CCOCC2)c1` [H8 (p8G5), 4-[5-(3-methylphenoxy)pentyl]morpholine], the “maximal respiration rate per mitochondrial content” value ([1]; 1 μM, 6 hours (FIG. 8C)) is reported as “increased the maximal respiration capacity per mitochondria to the level of untreated WT cells”, the “basal and ATP-linked respiration rate per mitochondrial DNA content” value ([1]; 1 μM) is reported as “brought both parameters to WT levels” and the “basal and ATP-linked respiration rate per mitochondrial DNA content” value [1] is reported as “statistically significant increase”. The “basal respiration and ATP-linked respiration per cell (OCR)” value ([1]; 6 hours, normalized to biomass (FIGS. 7A-B)) was “no effect”, the “red/green JC1 signal (mitochondria with high to low membrane potential)” value ([2]; 1 μM and 10 μM, 6 hours (FIG. 6)) was “increased the ratio between the content of mitochondria with high to low membrane potential” and the “effect on mitochondrial health (JC1, intact and damaged mitochondria)” value ([2]; 10 μM, 24 hours (FIG. 14C)) was “significant beneficial effect on mitochondrial health”. For the same molecule, the “mitochondrial content in Mut MEFs” value [3] was “lowered the abnormal high mitochondrial content” and the “ATP-linked and maximal respiration in mutant astrocytes” value [4] was “increased both ATP-linked and maximal respiration”.
